# Assay results published in patent US9995734B2, “Human T cell line assay for evaluating the immunologic identity of glatiramer acetate preparations” (Mylan Inc., priority 2013, dated 2018).
# Tests used:
# Type in all cases: cell-based, human
# Donor 3 GMA T-Cell Lines = assay: ATP proliferation assay (CellTiter Glo), Donor 3 GMA T-cell lines, incl. reactivity to non-canonical GA peptides; details: for Non-Canonical Peptide Non-Reactivity: proliferation <2 times no antigen control
# Donor 3 COP T-Cell Lines = assay: ATP proliferation assay (CellTiter Glo), Donor 3 COP T-cell lines, incl. reactivity to non-canonical GA peptides; details: for Non-Canonical Peptide Non-Reactivity: proliferation <2 times no antigen control
# Donor 4 COP T-Cell Lines = assay: ATP proliferation assay (CellTiter Glo), Donor 4 COP T-cell lines, incl. reactivity to non-canonical GA peptides; details: 205-1H11; proliferation <2 times no antigen control
substance,measurement,setting,value
poly (Glu-Tyr; 1:1) [GT 11],Non-Canonical Peptide Non-Reactivity,Donor 3 GMA T-Cell Lines; 165-B5G,GT 11
same,Non-Canonical Peptide Non-Reactivity,Donor 3 GMA T-Cell Lines; 165-C4G,GT 11
same,Non-Canonical Peptide Non-Reactivity,Donor 3 GMA T-Cell Lines; 165-C5G,GT 11
same,Non-Canonical Peptide Non-Reactivity,Donor 3 GMA T-Cell Lines; 165-E7G,GT 11
same,Non-Canonical Peptide Non-Reactivity,Donor 3 GMA T-Cell Lines; 165-E9G,GT 11
same,Non-Canonical Peptide Non-Reactivity,Donor 3 GMA T-Cell Lines; 165-F5G,GT 11
same,Non-Canonical Peptide Non-Reactivity,Donor 3 GMA T-Cell Lines; 165-F8G,GT 11
same,Non-Canonical Peptide Non-Reactivity,Donor 3 GMA T-Cell Lines; 165-F10G,GT 11
same,Non-Canonical Peptide Non-Reactivity,Donor 3 GMA T-Cell Lines; 165-H11G,GT 11
same,"Proliferation (luminescent ATP assay), Mean","Donor 3 GMA T-Cell Lines; T-cell line 165-B5G, 1.25 μg/mL antigen, Day 55 of culturing, No Antigen Value 846",2167 RLU
same,"Proliferation (luminescent ATP assay), Mean","Donor 3 GMA T-Cell Lines; T-cell line 165-B5G, 2.5 μg/mL antigen, Day 55 of culturing, No Antigen Value 846",1957 RLU
same,"Proliferation (luminescent ATP assay), Mean","Donor 3 GMA T-Cell Lines; T-cell line 165-B5G, 5 μg/mL antigen, Day 55 of culturing, No Antigen Value 846",1353 RLU
same,"Proliferation (luminescent ATP assay), Mean","Donor 3 GMA T-Cell Lines; T-cell line 165-B5G, 10 μg/mL antigen, Day 55 of culturing, No Antigen Value 846",1191 RLU
same,"Proliferation (luminescent ATP assay), Mean","Donor 3 GMA T-Cell Lines; T-cell line 165-C5G, 1.25 μg/mL antigen, autologous B-LCL",523 RLU
same,"Proliferation (luminescent ATP assay), Mean","Donor 3 GMA T-Cell Lines; T-cell line 165-C5G, 2.5 μg/mL antigen, autologous B-LCL",620 RLU
same,"Proliferation (luminescent ATP assay), Mean","Donor 3 GMA T-Cell Lines; T-cell line 165-C5G, 5 μg/mL antigen, autologous B-LCL",428 RLU
same,"Proliferation (luminescent ATP assay), Mean","Donor 3 GMA T-Cell Lines; T-cell line 165-C5G, 10 μg/mL antigen, autologous B-LCL",471 RLU
same,"Proliferation (luminescent ATP assay), Mean","Donor 3 GMA T-Cell Lines; T-cell line 165-E7G, 1.25 μg/mL antigen, autologous B-LCL, Day 55",2821 RLU
same,"Proliferation (luminescent ATP assay), Mean","Donor 3 GMA T-Cell Lines; T-cell line 165-E7G, 2.5 μg/mL antigen, autologous B-LCL, Day 55",2914 RLU
same,"Proliferation (luminescent ATP assay), Mean","Donor 3 GMA T-Cell Lines; T-cell line 165-E7G, 5 μg/mL antigen, autologous B-LCL, Day 55",2332 RLU
same,"Proliferation (luminescent ATP assay), Mean","Donor 3 GMA T-Cell Lines; T-cell line 165-E7G, 10 μg/mL antigen, autologous B-LCL, Day 55",1848 RLU
same,"Proliferation (luminescent ATP assay), Mean","Donor 3 GMA T-Cell Lines; T-cell line 165-E9G, 1.25 μg/mL antigen, autologous B-LCL",110 RLU
same,"Proliferation (luminescent ATP assay), Mean","Donor 3 GMA T-Cell Lines; T-cell line 165-E9G, 2.5 μg/mL antigen, autologous B-LCL",119 RLU
same,"Proliferation (luminescent ATP assay), Mean","Donor 3 GMA T-Cell Lines; T-cell line 165-E9G, 5 μg/mL antigen, autologous B-LCL",103 RLU
same,"Proliferation (luminescent ATP assay), Mean","Donor 3 GMA T-Cell Lines; T-cell line 165-E9G, 10 μg/mL antigen, autologous B-LCL",96 RLU
same,"Proliferation (luminescent ATP assay), Mean","Donor 3 GMA T-Cell Lines; T-cell line 165-F5G, 1.25 μg/mL antigen, autologous B-LCL",160 RLU
same,"Proliferation (luminescent ATP assay), Mean","Donor 3 GMA T-Cell Lines; T-cell line 165-F5G, 2.5 μg/mL antigen, autologous B-LCL",124 RLU
same,"Proliferation (luminescent ATP assay), Mean","Donor 3 GMA T-Cell Lines; T-cell line 165-F5G, 5 μg/mL antigen, autologous B-LCL",124 RLU
same,"Proliferation (luminescent ATP assay), Mean","Donor 3 GMA T-Cell Lines; T-cell line 165-F5G, 10 μg/mL antigen, autologous B-LCL",158 RLU
same,"Proliferation (luminescent ATP assay), Mean","Donor 3 GMA T-Cell Lines; T-cell line 165-F10G, 1.25 μg/mL antigen, autologous B-LCL",1388 RLU
same,"Proliferation (luminescent ATP assay), Mean","Donor 3 GMA T-Cell Lines; T-cell line 165-F10G, 2.5 μg/mL antigen, autologous B-LCL",1506 RLU
same,"Proliferation (luminescent ATP assay), Mean","Donor 3 GMA T-Cell Lines; T-cell line 165-F10G, 5 μg/mL antigen, autologous B-LCL",1598 RLU
same,"Proliferation (luminescent ATP assay), Mean","Donor 3 GMA T-Cell Lines; T-cell line 165-F10G, 10 μg/mL antigen, autologous B-LCL",1294 RLU
same,"Proliferation (luminescent ATP assay), Mean","Donor 3 GMA T-Cell Lines; T-cell line 165-H11G, 1.25 μg/mL antigen, autologous B-LCL",17 RLU
same,"Proliferation (luminescent ATP assay), Mean","Donor 3 GMA T-Cell Lines; T-cell line 165-H11G, 2.5 μg/mL antigen, autologous B-LCL",354 RLU
same,"Proliferation (luminescent ATP assay), Mean","Donor 3 GMA T-Cell Lines; T-cell line 165-H11G, 5 μg/mL antigen, autologous B-LCL",352 RLU
same,"Proliferation (luminescent ATP assay), Mean","Donor 3 GMA T-Cell Lines; T-cell line 165-H11G, 10 μg/mL antigen, autologous B-LCL",308 RLU
same,Non-Canonical Peptide Non-Reactivity,Donor 3 COP T-Cell Lines; 165-B6C,GT 11
same,Non-Canonical Peptide Non-Reactivity,Donor 3 COP T-Cell Lines; 165-B10C,GT 11
same,Non-Canonical Peptide Non-Reactivity,Donor 3 COP T-Cell Lines; 165-C4C,GT 11
same,Non-Canonical Peptide Non-Reactivity,Donor 3 COP T-Cell Lines; 165-C7C,GT 11
same,Non-Canonical Peptide Non-Reactivity,Donor 3 COP T-Cell Lines; 165-D2C,GT 11
same,Non-Canonical Peptide Non-Reactivity,Donor 3 COP T-Cell Lines; 165-D3C,GT 11
same,Non-Canonical Peptide Non-Reactivity,Donor 3 COP T-Cell Lines; 165-F3C,GT 11
same,Non-Canonical Peptide Non-Reactivity,Donor 3 COP T-Cell Lines; 165-F6C,GT 11
same,Non-Canonical Peptide Non-Reactivity,Donor 3 COP T-Cell Lines; 165-U3C (so in the source),GT 11
same,"Proliferation (luminescent ATP assay), Mean","Donor 3 COP T-Cell Lines; T-cell line 165-C4C, 1 μg/mL antigen, Day 66 of culture, 0 μg/mL 1881",2664
same,"Proliferation (luminescent ATP assay), Mean","Donor 3 COP T-Cell Lines; T-cell line 165-C4C, 3 μg/mL antigen, Day 66 of culture, 0 μg/mL 1881",2804
same,"Proliferation (luminescent ATP assay), Mean","Donor 3 COP T-Cell Lines; T-cell line 165-C4C, 10 μg/mL antigen, Day 66 of culture, 0 μg/mL 1881",2311
same,"Proliferation (luminescent ATP assay), Mean","Donor 3 COP T-Cell Lines; T-cell line 165-C7C, 1.25 μg/mL antigen, autologous B-LCL",346 RLU
same,"Proliferation (luminescent ATP assay), Mean","Donor 3 COP T-Cell Lines; T-cell line 165-C7C, 2.5 μg/mL antigen, autologous B-LCL",265 RLU
same,"Proliferation (luminescent ATP assay), Mean","Donor 3 COP T-Cell Lines; T-cell line 165-C7C, 5 μg/mL antigen, autologous B-LCL",255 RLU
same,"Proliferation (luminescent ATP assay), Mean","Donor 3 COP T-Cell Lines; T-cell line 165-C7C, 10 μg/mL antigen, autologous B-LCL",234 RLU
same,"Proliferation (luminescent ATP assay), Mean","Donor 3 COP T-Cell Lines; T-cell line 165-F3C, 1 μg/mL antigen, Day 77 of culture, 0 μg/mL 1563",2108
same,"Proliferation (luminescent ATP assay), Mean","Donor 3 COP T-Cell Lines; T-cell line 165-F3C, 3 μg/mL antigen, Day 77 of culture, 0 μg/mL 1563",2152
same,"Proliferation (luminescent ATP assay), Mean","Donor 3 COP T-Cell Lines; T-cell line 165-F3C, 10 μg/mL antigen, Day 77 of culture, 0 μg/mL 1563",1652
same,"Proliferation (luminescent ATP assay), Mean","Donor 3 COP T-Cell Lines; T-cell line 165-F6C, 1.25 μg/mL antigen, Day 76 of culture, No Antigen value 517",406
same,"Proliferation (luminescent ATP assay), Mean","Donor 3 COP T-Cell Lines; T-cell line 165-F6C, 2.5 μg/mL antigen, Day 76 of culture, No Antigen value 517",426
same,"Proliferation (luminescent ATP assay), Mean","Donor 3 COP T-Cell Lines; T-cell line 165-F6C, 5 μg/mL antigen, Day 76 of culture, No Antigen value 517",388
same,"Proliferation (luminescent ATP assay), Mean","Donor 3 COP T-Cell Lines; T-cell line 165-F6C, 10 μg/mL antigen, Day 76 of culture, No Antigen value 517",303
same,Non-Canonical Peptide Non-Reactivity,Donor 4 COP T-Cell Lines,GT 11
